Reference: US20100041089A1, “IMPROVED METHOD FOR DETECTING CHEMICAL […]” (priority 2006, published 2010)

System: yeast genes (expressed mRNA)
Assay: DNA chip measurement of expressed mRNA of yeast genes after culture with a toxic chemical substance
Format: cell-based, Saccharomyces cerevisiae S288C
Procedure, shortened: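 Expression is given as treated/untreated fluorescence ratio on a whole-genome yeast DNA chip, a ratio of two or more being significant. Log-phase S288C cultures in YPD at 25 °C received the chemical for 2 h at a dose that slows growth without killing. mRNA was reverse-transcribed with Cy3- or Cy5-dUTP.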

## C[S+](C)[O-] [(15), Dimethyl sulfoxide]
Gene YDL067C (mitochondria-located protein gene), yeast cultured two hours with chemical substance, DNA chip fluorescence ratio to control
  The level of expressed mRNA in the presence of chemical substance/The level of expressed mRNA in the absence of chemical substance, yeast gene YDL067C: 0.7
Gene YDR079W (mitochondria-located protein gene), yeast cultured two hours with chemical substance, DNA chip fluorescence ratio to control
  The level of expressed mRNA in the presence of chemical substance/The level of expressed mRNA in the absence of chemical substance, yeast gene YDR079W: 0.6
Gene YGR062C (mitochondria-located protein gene), yeast cultured two hours with chemical substance, DNA chip fluorescence ratio to control
  The level of expressed mRNA in the presence of chemical substance/The level of expressed mRNA in the absence of chemical substance, yeast gene YGR062C: 0.5
Gene YJL096W (mitochondria-located protein gene), yeast cultured two hours with chemical substance, DNA chip fluorescence ratio to control
  The level of expressed mRNA in the presence of chemical substance/The level of expressed mRNA in the absence of chemical substance, yeast gene YJL096W: 1.0
Gene YJL180C (mitochondria-located protein gene), yeast cultured two hours with chemical substance, DNA chip fluorescence ratio to control
  The level of expressed mRNA in the presence of chemical substance/The level of expressed mRNA in the absence of chemical substance, yeast gene YJL180C: 0.6
Yeast gene YAL018C, cultured two hours with the chemical substance
  level of expressed mRNA in the presence of chemical substance / level in the absence of chemical substance: 6.9
Yeast gene YAR047C, cultured two hours with the chemical substance
  level of expressed mRNA in the presence of chemical substance / level in the absence of chemical substance: 0.5
Yeast gene YAR064W, cultured two hours with the chemical substance
  level of expressed mRNA in the presence of chemical substance / level in the absence of chemical substance: 1.9
Yeast gene YBL044W, cultured two hours with the chemical substance
  level of expressed mRNA in the presence of chemical substance / level in the absence of chemical substance: 0.7
Yeast gene YBR012C, cultured two hours with the chemical substance
  level of expressed mRNA in the presence of chemical substance / level in the absence of chemical substance: 1.1
Yeast gene YBR047W, cultured two hours with substance
  The level of expressed mRNA in the presence of chemical substance/The level of expressed mRNA in the absence of chemical substance: 0.8
Yeast gene YBR066C, cultured two hours with the chemical substance
  level of expressed mRNA in the presence of chemical substance / level in the absence of chemical substance: 0.4
Yeast gene YBR100W, cultured two hours with the chemical substance
  The level of expressed mRNA in the presence of chemical substance/The level of expressed mRNA in the absence of chemical substance: 1.3
Yeast gene YBR124W, cultured two hours with the chemical substance
  level of expressed mRNA in the presence of chemical substance / level in the absence of chemical substance: 1.0
Yeast gene YBR162C, cultured two hours with the chemical substance
  level of expressed mRNA in the presence of chemical substance / level in the absence of chemical substance: 1.9
Yeast gene YBR273C, cultured two hours with substance
  The level of expressed mRNA in the presence of chemical substance/The level of expressed mRNA in the absence of chemical substance: 0.8
Yeast gene YBR287W, cultured two hours with the chemical substance
  level of expressed mRNA in the presence of chemical substance / level in the absence of chemical substance: 1.3
Yeast gene YCL009C
  The level of expressed mRNA in the presence of chemical substance/The level of expressed mRNA in the absence of chemical substance: 6.5
Yeast gene YCL040W, cultured for two hours with substance
  The level of expressed mRNA in the presence of chemical substance/The level of expressed mRNA in the absence of chemical substance: 3.4
Yeast gene YCL049C, cultured two hours with substance
  The level of expressed mRNA in the presence of chemical substance/The level of expressed mRNA in the absence of chemical substance: 1.4
Yeast gene YCL056C, cultured two hours with the chemical substance
  level of expressed mRNA in the presence of chemical substance / level in the absence of chemical substance: 1.7
Yeast gene YCR007C, cultured two hours with the chemical substance
  level of expressed mRNA in the presence of chemical substance / level in the absence of chemical substance: 0.8
Yeast gene YCR030C, cultured two hours with the chemical substance
  The level of expressed mRNA in the presence of chemical substance/The level of expressed mRNA in the absence of chemical substance: 1.3
Yeast gene YCR082W, cultured two hours with substance
  The level of expressed mRNA in the presence of chemical substance/The level of expressed mRNA in the absence of chemical substance: 1.6
Yeast gene YCR107W, cultured for two hours with substance
  The level of expressed mRNA in the presence of chemical substance/The level of expressed mRNA in the absence of chemical substance: 4.8
Yeast gene YDL046W, cultured two hours with the chemical substance
  level of expressed mRNA in the presence of chemical substance / level in the absence of chemical substance: 2.3
Yeast gene YDL110C, cultured two hours with substance
  The level of expressed mRNA in the presence of chemical substance/The level of expressed mRNA in the absence of chemical substance: 1.3
Yeast gene YDL222C, cultured two hours with substance
  The level of expressed mRNA in the presence of chemical substance/The level of expressed mRNA in the absence of chemical substance: 7.1
Yeast gene YDR031W, cultured two hours with substance
  The level of expressed mRNA in the presence of chemical substance/The level of expressed mRNA in the absence of chemical substance: 0.8
Yeast gene YDR032C, cultured two hours with substance
  The level of expressed mRNA in the presence of chemical substance/The level of expressed mRNA in the absence of chemical substance: 1.3
Yeast gene YDR090C, cultured two hours with the chemical substance
  level of expressed mRNA in the presence of chemical substance / level in the absence of chemical substance: 1.1
Yeast gene YDR128W, cultured two hours with the chemical substance
  level of expressed mRNA in the presence of chemical substance / level in the absence of chemical substance: 1.4
Yeast gene YDR133C, cultured two hours with the chemical substance
  level of expressed mRNA in the presence of chemical substance / level in the absence of chemical substance: 0.6
Yeast gene YDR250C, cultured two hours with the chemical substance
  level of expressed mRNA in the presence of chemical substance / level in the absence of chemical substance: 0.7
Yeast gene YDR278C, cultured two hours with the chemical substance
  level of expressed mRNA in the presence of chemical substance / level in the absence of chemical substance: 0.7
Yeast gene YDR281C, cultured two hours with the chemical substance
  level of expressed mRNA in the presence of chemical substance / level in the absence of chemical substance: 0.3
Yeast gene YDR366C, cultured two hours with the chemical substance
  level of expressed mRNA in the presence of chemical substance / level in the absence of chemical substance: 1.4
Yeast gene YDR434W, cultured two hours with substance
  The level of expressed mRNA in the presence of chemical substance/The level of expressed mRNA in the absence of chemical substance: 1.3
Yeast gene YDR476C, cultured two hours with substance
  The level of expressed mRNA in the presence of chemical substance/The level of expressed mRNA in the absence of chemical substance: 2.2
Yeast gene YDR497C (transport facilitation protein gene)
  The level of expressed mRNA in the presence of chemical substance/The level of expressed mRNA in the absence of chemical substance: 10.1
Yeast gene YDR511W, cultured two hours with substance
  The level of expressed mRNA in the presence of chemical substance/The level of expressed mRNA in the absence of chemical substance: 0.8
Yeast gene YDR520C, cultured two hours with substance
  The level of expressed mRNA in the presence of chemical substance/The level of expressed mRNA in the absence of chemical substance: 1.3
Yeast gene YER014W, mitochondria-located protein gene, cultured two hours with substance
  The level of expressed mRNA in the presence of chemical substance/The level of expressed mRNA in the absence of chemical substance: 2.3
Yeast gene YER038C, cultured two hours with substance
  The level of expressed mRNA in the presence of chemical substance/The level of expressed mRNA in the absence of chemical substance: 0.8
Yeast gene YER106W, cultured two hours with substance
  The level of expressed mRNA in the presence of chemical substance/The level of expressed mRNA in the absence of chemical substance: 6.8
Yeast gene YER175C, cultured two hours with substance
  The level of expressed mRNA in the presence of chemical substance/The level of expressed mRNA in the absence of chemical substance: 1.3
Yeast gene YFR026C, cultured two hours with the chemical substance
  level of expressed mRNA in the presence of chemical substance / level in the absence of chemical substance: 2.3
Yeast gene YGL037C, cultured two hours with substance
  The level of expressed mRNA in the presence of chemical substance/The level of expressed mRNA in the absence of chemical substance: 0.8
Yeast gene YGL088W, cultured two hours with the chemical substance
  level of expressed mRNA in the presence of chemical substance / level in the absence of chemical substance: 0.4
Yeast gene YGL204C, cultured two hours with substance
  The level of expressed mRNA in the presence of chemical substance/The level of expressed mRNA in the absence of chemical substance: 0.8
Yeast gene YGL259W, cultured two hours with substance
  The level of expressed mRNA in the presence of chemical substance/The level of expressed mRNA in the absence of chemical substance: 1.3
Yeast gene YGR010W, cultured two hours with substance
  The level of expressed mRNA in the presence of chemical substance/The level of expressed mRNA in the absence of chemical substance: 1.3
Yeast gene YGR038W, cultured two hours with the chemical substance
  level of expressed mRNA in the presence of chemical substance / level in the absence of chemical substance: 1.1
Yeast gene YGR139W, cultured two hours with the chemical substance
  level of expressed mRNA in the presence of chemical substance / level in the absence of chemical substance: 2.3
Yeast gene YGR141W, cultured two hours with the substance
  The level of expressed mRNA in the presence of chemical substance/The level of expressed mRNA in the absence of chemical substance: 2.6
Yeast gene YGR142W, cultured two hours with substance
  The level of expressed mRNA in the presence of chemical substance/The level of expressed mRNA in the absence of chemical substance: 1.3
Yeast gene YGR153W, cultured two hours with substance
  The level of expressed mRNA in the presence of chemical substance/The level of expressed mRNA in the absence of chemical substance: 1.3
Yeast gene YGR243W, cultured two hours with the chemical substance
  level of expressed mRNA in the presence of chemical substance / level in the absence of chemical substance: 0.8
Yeast gene YGR293C, cultured two hours with the chemical substance
  level of expressed mRNA in the presence of chemical substance / level in the absence of chemical substance: 0.7
Yeast gene YHL006C, cultured two hours with the chemical substance
  level of expressed mRNA in the presence of chemical substance / level in the absence of chemical substance: 0.6
Yeast gene YHR095W, cultured two hours with the chemical substance
  level of expressed mRNA in the presence of chemical substance / level in the absence of chemical substance: 0.8
Yeast gene YHR105W, cultured two hours with the chemical substance
  level of expressed mRNA in the presence of chemical substance / level in the absence of chemical substance: 0.9
Yeast gene YHR138C, cultured two hours with substance
  The level of expressed mRNA in the presence of chemical substance/The level of expressed mRNA in the absence of chemical substance: 2.2
Yeast gene YHR142W
  The level of expressed mRNA in the presence of chemical substance/The level of expressed mRNA in the absence of chemical substance: 4.8
Yeast gene YHR181W, cultured two hours with the chemical substance
  level of expressed mRNA in the presence of chemical substance / level in the absence of chemical substance: 1.4
Yeast gene YIL041W, cultured two hours with substance
  The level of expressed mRNA in the presence of chemical substance/The level of expressed mRNA in the absence of chemical substance: 1.3
Yeast gene YIL060W, cultured two hours with substance
  The level of expressed mRNA in the presence of chemical substance/The level of expressed mRNA in the absence of chemical substance: 1.3
Yeast gene YIL117C, cultured two hours with substance
  The level of expressed mRNA in the presence of chemical substance/The level of expressed mRNA in the absence of chemical substance: 7.5
Yeast gene YIL127C, cultured two hours with the chemical substance
  level of expressed mRNA in the presence of chemical substance / level in the absence of chemical substance: 0.7
Yeast gene YIL143C, DNA repair protein genes, cultured two hours with substance
  The level of expressed mRNA in the presence of chemical substance/The level of expressed mRNA in the absence of chemical substance: 1.3
Yeast gene YIR041W, cultured two hours with the chemical substance
  The level of expressed mRNA in the presence of chemical substance/The level of expressed mRNA in the absence of chemical substance: 1.3
Yeast gene YJL017W, cultured two hours with the chemical substance
  level of expressed mRNA in the presence of chemical substance / level in the absence of chemical substance: 1.1
Yeast gene YJL034W (transport facilitation protein gene)
  The level of expressed mRNA in the presence of chemical substance/The level of expressed mRNA in the absence of chemical substance: 7.9
Yeast gene YJL037W, cultured two hours with the chemical substance
  level of expressed mRNA in the presence of chemical substance / level in the absence of chemical substance: 1.6
Yeast gene YJL066C, cultured two hours with substance
  The level of expressed mRNA in the presence of chemical substance/The level of expressed mRNA in the absence of chemical substance: 1.3
Yeast gene YJL097W, cultured two hours with the chemical substance
  level of expressed mRNA in the presence of chemical substance / level in the absence of chemical substance: 1.1
Yeast gene YJL108C, cultured two hours with substance
  The level of expressed mRNA in the presence of chemical substance/The level of expressed mRNA in the absence of chemical substance: 4.0
Yeast gene YJL149W, cultured two hours with substance
  The level of expressed mRNA in the presence of chemical substance/The level of expressed mRNA in the absence of chemical substance: 9.0
